Source: US20230077362A1 (CORTEVA AGRISCIENCE LLC, priority 2019, published 2023)
Like-named read-outs stand apart in the source and are kept apart here.

Columns and labels:
[1] = system: Cabbage Looper (Trichoplusia ni) ("CL"), second instar larvae; assay: Bioassay on cabbage looper (CL), 128-well diet tray assay; assay type: in vivo; details: for CL rating: C = not tested, D = no activity noticed
How it was run: (§1)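 Second-instar larvae on diet in 128-well trays, covered and held at 25° C, 14:10 light-dark, for five to seven days. Percent mortality scored per well and averaged over eight wells; activity reported as a rating category.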

[2] = system: Beet Armyworm (Spodoptera exigua) ("BAW"), second instar larvae; assay: Bioassay on beet armyworm (BAW), 128-well diet tray assay; assay type: in vivo; details: for pest or weed control at 50 µg/cm2: Spodoptera exigua; for BAW rating: C = not tested, D = no activity noticed
How it was run: as §1

[3] = Trichoplusia ni, read-out: CL rating
[4] = Trichoplusia ni, read-out: CL (Biological Results, rating)
[5] = read-out: BAW (Biological Results, rating)

Molecule CCOCc1ccc(C)cc1N1C(=O)CS/C1=N\C(=O)Nc1ccc(-c2cn(-c3ccc(S(F)(F)(F)(F)F)cc3)cn2)cc1C [Compound J615, (Z)-1-(3-(2-(Ethoxymethyl)-5-methylphenyl)-4-oxothiazolidin-2-ylidene)-3-(2-methyl-4-(1-(4-(pentafluoro-λ^6-sulfaneyl)phenyl)-1H-imidazol-4-yl)phenyl)urea] has a pest or weed control at 50 µg/cm2 [1, 3] of 50 to 100% and a pest or weed control at 50 µg/cm2 ([2]; read-out: BAW rating) of 50 to 100%.
In the case of COC(C)c1ccc(C)cc1N1C(=O)CS/C1=N\C(=O)Nc1ccc(-c2ncn(-c3ccc(OC(F)(F)F)cn3)n2)cc1C(F)(F)F (centres unmarked) [Compound J276, (Z)-1-(3-(2-(1-Methoxyethyl)-5-methylphenyl)-4-oxothiazolidin-2-ylidene)-3-(4-(1-(5-(trifluoromethoxy)pyridin-2-yl)-1H-1,2,4-triazol-3-yl)-2-(trifluoromethyl)phenyl)urea], the pest or weed control at 50 µg/cm2 [1, 4] is reported as 50 to 100% and the pest or weed control at 50 µg/cm2 [2, 5] is reported as 50 to 100%.
With COc1ccc(C(C)C)c(N2C(=O)CS/C2=N\C(=O)Nc2ccc(-c3ncn(-c4ccc(OC(F)(F)F)cn4)n3)cc2C)c1 [Compound J252, (Z)-1-(3-(2-Isopropyl-5-methoxyphenyl)-4-oxothiazolidin-2-ylidene)-3-(2-methyl-4-(1-(5-(trifluoromethoxy)pyridin-2-yl)-1H-1,2,4-triazol-3-yl)phenyl)urea] the pest or weed control at 50 µg/cm2 [1, 4] was 50 to 100% and the pest or weed control at 50 µg/cm2 [2, 5] was 50 to 100%.
In the case of Cc1cc(-c2ncn(-c3ccc(C(F)(F)F)cc3)n2)ccc1NC(=O)/N=C1\SCC(=O)N1c1cccc(C)c1COCC(F)(F)F [Compound J579], the CL rating ([1]; Table ABC, species CL) is reported as “A (50-100)” and the BAW rating ([2]; Table ABC, species BAW) is reported as “A (50-100)”.
For CCCCc1ccc(C)cc1N1C(=O)CS/C1=N\C(=O)Nc1ccc(-c2ncn(-c3ccc(OC(F)(F)F)cc3)n2)cc1F [Compound J44, (Z)-1-(3-(2-Butyl-5-methylphenyl)-4-oxothiazolidin-2-ylidene)-3-(2-fluoro-4-(1-(4-(trifluoromethoxy)phenyl)-1H-1,2,4-triazol-3-yl)phenyl)urea], the pest or weed control at 50 µg/cm2 [1, 4] was 50 to 100% and the pest or weed control at 50 µg/cm2 [2, 5] was 50 to 100%.
With Cc1cc(-n2cnc(-c3ccc(OC(F)(F)F)cc3)n2)ccc1NC(=O)/N=C1\SCC(=O)N1c1cc(N(C)C)ccc1C(F)(F)F [Compound J468, (Z)-1-(3-(5-(Dimethylamino)-2-(trifluoromethyl)phenyl)-4-oxothiazolidin-2-ylidene)-3-(2-methyl-4-(3-(4-(trifluoromethoxy)phenyl)-1H-1,2,4-triazol-1-yl)phenyl)urea] the pest or weed control at 50 µg/cm2 [1, 3] was 50 to 100% and the pest or weed control at 50 µg/cm2 ([2]; read-out: BAW rating) was 50 to 100%.
COCc1ccc(C)cc1N1C(=O)CS/C1=N\C(=O)Nc1ccc(-c2ncn(-c3ccc(C(F)F)cn3)n2)cc1F [Compound J345] was tested, and the “CL (Biological Results, rating)” value ([1]; Cabbage Looper (Trichoplusia ni), C = Not Tested) was “A (50-100)” and the “BAW (Biological Results, rating)” value ([2]; Beet Armyworm (Spodoptera exigua), C = Not Tested) was “A (50-100)”.
In the case of COC(C)c1ccc(C)cc1N1C(=O)CS/C1=N\C(=O)Nc1ccc(-c2ncn(-c3ccc(C(F)(F)F)cc3)n2)cc1F (centres unmarked) [Compound J62, (Z)-1-(2-Fluoro-4-(1-(4-(trifluoromethyl)phenyl)-1H-1,2,4-triazol-3-yl)phenyl)-3-(3-(2-(1-methoxyethyl)-5-methylphenyl)-4-oxothiazolidin-2-ylidene)urea], the pest or weed control at 50 µg/cm2 [1, 4] is reported as 50 to 100% and the pest or weed control at 50 µg/cm2 [2, 5] is reported as 50 to 100%.
Molecule Cc1ccc(OCCC(F)(F)F)c(N2C(=O)CS/C2=N\C(=O)Nc2ccc(-c3ncn(-c4ccc(OC(F)(F)F)cc4)n3)cc2C#N)c1 [Compound J243, (Z)-1-(2-Cyano-4-(1-(4-(trifluoromethoxy)phenyl)-1H-1,2,4-triazol-3-yl)phenyl)-3-(3-(5-methyl-2-(3,3,3-trifluoropropoxy)phenyl)-4-oxothiazolidin-2-ylidene)urea] has a pest or weed control at 50 µg/cm2 [1, 4] of 50 to 100% and a pest or weed control at 50 µg/cm2 [2, 5] of 50 to 100%.
CCc1ccc(C)cc1N1C(=O)CS/C1=N\C(=O)Nc1ccc(-c2ncn(-c3ccc(OC(F)(F)C(F)(F)F)cc3)n2)c(C)c1 [Compound J14, (Z)-1-(3-(2-Ethyl-5-methylphenyl)-4-oxothiazolidin-2-ylidene)-3-(3-methyl-4-(1-(4-(perfluoroethoxy)phenyl)-1H-1,2,4-triazol-3-yl)phenyl)urea] showed a pest or weed control at 50 µg/cm2 [1, 4] of 50 to 100% and a pest or weed control at 50 µg/cm2 [2, 5] of 50 to 100%.
Cc1ccc(COCC(Cl)Cl)c(N2C(=O)CS/C2=N\C(=O)Nc2ccc(-c3ncn(-c4ccc(OC(F)(F)F)cc4)n3)cc2F)c1 [Compound J553] was tested, and the CL rating ([1]; Table ABC, species CL) was “A (50-100)” and the BAW rating ([2]; Table ABC, species BAW) was “A (50-100)”.
Work on COC(C)c1ccc(C)cc1N1C(=O)CS/C1=N\C(=O)Nc1ccc(-c2ncn(-c3ccc(OC(F)(F)F)cn3)n2)cc1C#N (centres unmarked) [Compound J267, (Z)-1-(2-Cyano-4-(1-(5-(trifluoromethoxy)pyridin-2-yl)-1H-1,2,4-triazol-3-yl)phenyl)-3-(3-(2-(1-methoxyethyl)-5-methylphenyl)-4-oxothiazolidin-2-ylidene)urea] yielded a pest or weed control at 50 µg/cm2 [1, 4] of 50 to 100% and a pest or weed control at 50 µg/cm2 [2, 5] of 50 to 100%.
With COc1cc(COCC(F)(F)F)c(N2C(=O)CS/C2=N\C(=O)Nc2ccc(-c3ncn(-c4ccc(OC(F)(F)F)cc4)n3)cc2F)cc1OC [Compound J560] the CL rating ([1]; Table ABC, species CL) was “A (50-100)” and the BAW rating ([2]; Table ABC, species BAW) was “A (50-100)”.
Cc1ccc(C(F)(F)F)cc1N1C(=O)CS/C1=N\C(=O)Nc1ccc(-c2ncn(-c3ccc(OC(F)(F)F)cc3)n2)cc1F [Compound J799, (Z)-1-(2-Fluoro-4-(1-(4-(trifluoromethoxy)phenyl)-1H-1,2,4-triazol-3-yl)phenyl)-3-(3-(2-methyl-5-(trifluoromethyl)phenyl)-4-oxothiazolidin-2-ylidene)urea] was tested, and the mortality at 50 µg/cm2 ([1]; Trichoplusia ni, Table ABC, species CL, 128-well diet tray assay, second instar larvae, read-out: CL rating (% control or mortality class)) was 50 to 100% and the “BAW rating (% control or mortality class)” value ([2]; Table ABC, species BAW, 128-well diet tray assay, second instar larvae) was “A (50-100)”.
With COc1ccc(COCC(F)(F)F)c(N2C(=O)CS/C2=N\C(=O)Nc2ccc(-c3ncn(-c4ccc(S(F)(F)(F)(F)F)cc4)n3)cc2C)c1 [Compound J577] the CL rating ([1]; Table ABC, species CL) was “A (50-100)” and the BAW rating ([2]; Table ABC, species BAW) was “A (50-100)”.
In the case of COCc1ccc(C)cc1N1C(=O)CS/C1=N\C(=O)Nc1ccc(-c2ncn(-c3ccc(OC(F)(F)F)cc3)n2)cc1C [Compound J67, (Z)-1-(3-(2-(Methoxymethyl)-5-methylphenyl)-4-oxothiazolidin-2-ylidene)-3-(2-methyl-4-(1-(4-(trifluoromethoxy)phenyl)-1H-1,2,4-triazol-3-yl)phenyl)urea], the pest or weed control at 50 µg/cm2 [1, 4] is reported as 50 to 100% and the pest or weed control at 50 µg/cm2 [2, 5] is reported as 50 to 100%.
CCOC(C)c1ccc(C)cc1N1C(=O)CS/C1=N\C(=O)Nc1ccc(-c2ncn(-c3ccc(C(F)(F)F)cn3)n2)cc1F (centres unmarked) [Compound J378] was tested, and the CL rating ([1]; Table ABC, species CL) was “A (50-100)” and the BAW rating ([2]; Table ABC, species BAW) was “A (50-100)”.
In the case of Cc1cc(-c2ncn(-c3ccc(OC(F)(F)C(F)(F)F)cc3)n2)ccc1NC(=O)/N=C1\SCC(=O)N1c1cccc(C)c1COCC(F)(F)F [Compound J682], the CL rating ([1]; Table ABC, species CL) is reported as “A (50-100)” and the BAW rating ([2]; Table ABC, species BAW) is reported as “A (50-100)”.
For CCCc1ccc(N(C)C)cc1N1C(=O)CS/C1=N\C(=O)Nc1ccc(-c2ncn(-c3ccc(OC(F)(F)F)cn3)n2)cc1C#N [Compound J269, (Z)-1-(2-Cyano-4-(1-(5-(trifluoromethoxy)pyridin-2-yl)-1H-1,2,4-triazol-3-yl)phenyl)-3-(3-(5-(dimethylamino)-2-propylphenyl)-4-oxothiazolidin-2-ylidene)urea], the pest or weed control at 50 µg/cm2 [1, 4] was 50 to 100% and the pest or weed control at 50 µg/cm2 [2, 5] was 50 to 100%.
Work on CN(C)c1ccc(C(F)(F)F)c(N2C(=O)CS/C2=N\C(=O)Nc2ccc(-c3cn(-c4ccc(S(F)(F)(F)(F)F)cc4)cn3)cc2F)c1 [Compound J600, (Z)-1-(3-(5-(Dimethylamino)-2-(trifluoromethyl)phenyl)-4-oxothiazolidin-2-ylidene)-3-(2-fluoro-4-(1-(4-(pentafluoro-λ^6-sulfaneyl)phenyl)-1H-imidazol-4-yl)phenyl)urea] yielded a pest or weed control at 50 µg/cm2 [1, 3] of 50 to 100% and a pest or weed control at 50 µg/cm2 ([2]; read-out: BAW rating) of 50 to 100%.
COCc1ccc(C)cc1N1C(=O)CS/C1=N\C(=O)Nc1ccc(-c2noc(-c3ccc(OC(F)(F)F)cc3)n2)cc1F [Compound J772, (Z)-1-(2-Fluoro-4-(5-(4-(trifluoromethoxy)phenyl)-1,2,4-oxadiazol-3-yl)phenyl)-3-(3-(2-(methoxymethyl)-5-methylphenyl)-4-oxothiazolidin-2-ylidene)urea] gave a pest or weed control at 50 µg/cm2 [1, 3] of 50 to 100% and a pest or weed control at 50 µg/cm2 ([2]; read-out: BAW rating) of 50 to 100%.
COC(c1ccc(C)cc1N1C(=O)CS/C1=N\C(=O)Nc1ccc(-c2ncn(-c3ccc([S+]([O-])C(F)(F)F)cc3)n2)cc1F)C(F)(F)F (centres unmarked) [Compound J386, (Z)-1-(2-Fluoro-4-(1-(4-((trifluoromethyl)sulfinyl)phenyl)-1H-1,2,4-triazol-3-yl)phenyl)-3-(3-(5-methyl-2-(2,2,2-trifluoro-1-methoxyethyl)phenyl)-4-oxothiazolidin-2-ylidene)urea] gave a pest or weed control at 50 µg/cm2 [1, 3] of 50 to 100% and a pest or weed control at 50 µg/cm2 ([2]; read-out: BAW rating) of 50 to 100%.
Cc1ccc(COCC(Cl)(Cl)Cl)c(N2C(=O)CS/C2=N\C(=O)Nc2ccc(-c3ncn(-c4ccc(OC(F)(F)F)cc4)n3)cc2C)c1 [Compound J459] was tested, and the CL rating ([1]; Table ABC, species CL) was “A (50-100)” and the BAW rating ([2]; Table ABC, species BAW) was “A (50-100)”.
CC(C)c1ccc(N(C)C)cc1N1C(=O)CS/C1=N\C(=O)Nc1ccc(-c2cn(-c3ccc(C(F)(F)F)cn3)cn2)cc1F [Compound J481, (Z)-1-(3-(5-(Dimethylamino)-2-isopropylphenyl)-4-oxothiazolidin-2-ylidene)-3-(2-fluoro-4-(1-(5-(trifluoromethyl)pyridin-2-yl)-1H-imidazol-4-yl)phenyl)urea] showed a pest or weed control at 50 µg/cm2 [1, 3] of 50 to 100% and a pest or weed control at 50 µg/cm2 ([2]; read-out: BAW rating) of 50 to 100%.
Cc1ccc(OCCC(F)(F)F)c(N2C(=O)C(Cl)S/C2=N\C(=O)Nc2ccc(-c3ncn(-c4ccc(C(F)(F)F)cc4)n3)cc2)c1 (centres unmarked) [Compound J317, (Z)-1-(5-Chloro-3-(5-methyl-2-(3,3,3-trifluoropropoxy)phenyl)-4-oxothiazolidin-2-ylidene)-3-(4-(1-(4-(trifluoromethyl)phenyl)-1H-1,2,4-triazol-3-yl)phenyl)urea] gave a pest or weed control at 50 µg/cm2 [1, 4] of 50 to 100% and a pest or weed control at 50 µg/cm2 [2, 5] of 50 to 100%.
